From ChEMBL document CHEMBL5365457, “Selective HDAC3 Inhibitors with Potent In Vivo Antitumor Efficacy against Triple-Negative Breast Cancer” (J Med Chem, 2023)

Assays:
[1] = Cytotoxicity against human MCF-10A cells assessed as inhibition of cell growth incubated for 72 hrs by MTT assay; assay type: toxicity, cell-based
[2] = Selectivity ratio of IC50 for cytotoxicity against human MCF-10A cells assessed as inhibition of cell growth to IC50 for cytotoxicity against human MDA-MB-453 cells assessed as inhibition of cell growth; assay type: toxicity, cell-based; conditions: MCF-10A cells versus MDA-MB-453 cells, read-out: Ratio IC50
4T1 = assay: Cytotoxicity against mouse 4T1 cells assessed as inhibition of cell growth incubated for 72 hrs by MTT assay; assay type: functional, cell-based; conditions: 4T1, 72 h
MCF7 = assay: Cytotoxicity against human MCF7 cells assessed as inhibition of cell growth incubated for 72 hrs by MTT assay; assay type: functional, cell-based; conditions: MCF7, 72 h
MDA-MB-453 = assay: Cytotoxicity against human MDA-MB-453 cells assessed as inhibition of cell growth incubated for 72 hrs by MTT assay; assay type: functional, cell-based; conditions: MDA-MB-453, 72 h
[3] = Selectivity ratio of IC50 for cytotoxicity against human MCF-10A cells assessed as inhibition of cell growth to IC50 for cytotoxicity against […] cells assessed as inhibition of cell growth; assay type: toxicity, cell-based; conditions: MCF-10A cells versus 4T1 cells, read-out: Ratio IC50
[4] = Selectivity ratio of IC50 for cytotoxicity against human HCEC cells assessed as inhibition of cell growth to IC50 for cytotoxicity against human MDA-MB-453 cells assessed as inhibition of cell growth; assay type: toxicity, cell-based; conditions: HCEC cells versus MDA-MB-453 cells, read-out: Ratio IC50
[5] = Cytotoxicity against human HCEC cells assessed as inhibition of cell growth incubated for 72 hrs by MTT assay; assay type: toxicity, cell-based; conditions: human, HCEC cells
[6] = Cytotoxicity against human HEK293 cells assessed as inhibition of cell growth incubated for 72 hrs by MTT assay; assay type: toxicity, cell-based
[7] = Selectivity ratio of IC50 for cytotoxicity against human HEK293 cells assessed as inhibition of cell growth to IC50 for cytotoxicity against human MCF7 cells assessed as inhibition of cell growth; assay type: toxicity, cell-based; conditions: HEK293 cells versus MCF7 cells, read-out: Ratio IC50
[8] = Selectivity ratio of IC50 for cytotoxicity against human HCEC cells assessed as inhibition of cell growth to IC50 for cytotoxicity against mouse 4T1 cells assessed as inhibition of cell growth; assay type: toxicity, cell-based; conditions: HCEC cells versus 4T1 cells, read-out: Ratio IC50
MDA-MB-231 = assay: Cytotoxicity against human MDA-MB-231 cells assessed as inhibition of cell growth incubated for 72 hrs by MTT assay; assay type: functional, cell-based; conditions: MDA-MB-231, 72 h
[9] = Selectivity ratio of IC50 for cytotoxicity against human HCEC cells assessed as inhibition of cell growth to IC50 for cytotoxicity against human MCF7 cells assessed as inhibition of cell growth; assay type: toxicity, cell-based; conditions: HCEC cells versus MCF7 cells, read-out: Ratio IC50
[10] = Selectivity ratio of IC50 for cytotoxicity against human HEK293 cells assessed as inhibition of cell growth to IC50 for cytotoxicity against human MDA-MB-453 cells assessed as inhibition of cell growth; assay type: toxicity, cell-based; conditions: HEK293 cells versus MDA-MB-453 cells, read-out: Ratio IC50
[11] = Selectivity ratio of IC50 for cytotoxicity against human HCEC cells assessed as inhibition of cell growth to IC50 for cytotoxicity against human MDA-MB-231 cells assessed as inhibition of cell growth; assay type: toxicity, cell-based; conditions: HCEC cells versus MDA-MB-231 cells, read-out: Ratio IC50
[12] = Selectivity ratio of IC50 for cytotoxicity against human HEK293 cells assessed as inhibition of cell growth to IC50 for cytotoxicity against mouse 4T1 cells assessed as inhibition of cell growth; assay type: toxicity, cell-based; conditions: HEK293 cells versus 4T1 cells, read-out: Ratio IC50
[13] = Selectivity ratio of IC50 for cytotoxicity against human MCF-10A cells assessed as inhibition of cell growth to IC50 for cytotoxicity against human MCF7 cells assessed as inhibition of cell growth; assay type: toxicity, cell-based; conditions: MCF-10A cells versus MCF7 cells, read-out: Ratio IC50
[14] = Selectivity ratio of IC50 for cytotoxicity against human HEK293 cells assessed as inhibition of cell growth to IC50 for cytotoxicity against human MDA-MB-231 cells assessed as inhibition of cell growth; assay type: toxicity, cell-based; conditions: HEK293 cells versus MDA-MB-231 cells, read-out: Ratio IC50
[15] = Selectivity ratio of IC50 for cytotoxicity against human MCF-10A cells assessed as inhibition of cell growth to IC50 for cytotoxicity against human MDA-MB-231 cells assessed as inhibition of cell growth; assay type: toxicity, cell-based; conditions: MCF-10A cells versus MDA-MB-231 cells, read-out: Ratio IC50
Histone deacetylase 3 = Histone deacetylase 3 (Homo sapiens, UniProt O15379); assay: Inhibition of human recombinant HDAC3 at 1 uM measured after 30 mins by fluorescence based microplate assay relative to control
Chain of Histone deacetylase 3 (O15379 whole entry): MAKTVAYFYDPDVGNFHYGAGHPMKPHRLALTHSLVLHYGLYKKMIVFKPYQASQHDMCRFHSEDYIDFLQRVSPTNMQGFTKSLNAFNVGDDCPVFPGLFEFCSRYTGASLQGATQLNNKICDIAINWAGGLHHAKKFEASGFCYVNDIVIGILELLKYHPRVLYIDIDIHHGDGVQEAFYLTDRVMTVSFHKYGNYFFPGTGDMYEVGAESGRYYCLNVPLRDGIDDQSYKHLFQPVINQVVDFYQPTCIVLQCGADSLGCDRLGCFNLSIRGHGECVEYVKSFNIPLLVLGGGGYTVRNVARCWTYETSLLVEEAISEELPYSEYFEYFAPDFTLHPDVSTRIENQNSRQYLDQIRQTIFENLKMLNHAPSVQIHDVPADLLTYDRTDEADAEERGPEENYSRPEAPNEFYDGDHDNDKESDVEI

Row | inhibition (Histone deacetylase 3) [%] | SMILES | IC50 at 72 h [1] [µM] | selectivity ratio [2] | IC50 (4T1) [µM] | IC50 (MCF7) [µM] | IC50 (MDA-MB-453) [µM] | selectivity ratio [3] | selectivity ratio [4] | IC50 at 72 h [5] [µM] | IC50 at 72 h [6] [µM] | selectivity ratio [7] | selectivity ratio [8] | IC50 (MDA-MB-231) [µM] | selectivity ratio [9] | selectivity ratio [10] | selectivity ratio [11] | selectivity ratio [12] | selectivity ratio [13] | selectivity ratio [14] | selectivity ratio [15]
1 | – | CCCCNNC(=O)c1cnc(N)cn1 | 118 | > 40 | 1.27 | 1.81 | 3.33 | > 40 | > 40 | 215 | 133 | > 40 | > 40 | 1.25 | > 40 | > 40 | > 40 | > 40 | > 40 | > 40 | > 40
2 | – | CCCCNNC(=O)c1cnc(Nc2ccccc2)cn1 | 138 | > 40 | 2.17 | 1.14 | 5.18 | > 40 | > 40 | 180 | 207 | > 40 | > 40 | 1.91 | > 40 | > 40 | > 40 | > 40 | > 40 | > 40 | > 40
3 | – | CCCCNNC(=O)c1cnc(NC(=O)c2ccc3ncccc3c2)cn1 | 220 | > 40 | 2.92 | 1.36 | 4.92 | > 40 | > 40 | 234 | 264 | > 40 | > 40 | 2.84 | > 40 | > 40 | > 40 | > 40 | > 40 | > 40 | > 40
4 | – | CCCCNNC(=O)c1cnc(NC(C)=O)cn1 | 106 | – | 2.74 | 1.65 | 7.94 | – | – | 187 | 229 | – | – | 3.05 | – | – | – | – | – | – | –
5 | – | CCCCNNC(=O)c1cnccn1 | 103 | > 40 | 0.88 | 2.44 | 2.52 | > 40 | > 40 | 175 | 101 | > 40 | > 40 | 1.17 | > 40 | > 40 | > 40 | > 40 | > 40 | > 40 | > 40
6 | > 70 | CCCNNC(=O)c1cnc(Nc2ccccc2)cn1 | 205 | > 40 | 2.76 | 3.28 | 5.44 | > 40 | > 40 | 196 | 218 | > 40 | > 40 | 1.88 | > 40 | > 40 | > 40 | > 40 | > 40 | > 40 | > 40
7 | – | CCCNNC(=O)c1cnc(NC(C)=O)cn1 | 142 | > 40 | 0.92 | 1.21 | 1.93 | > 40 | > 40 | 164 | 118 | > 40 | > 40 | 0.97 | > 40 | > 40 | > 40 | > 40 | > 40 | > 40 | > 40
8 | – | CCCNNC(=O)c1cnccn1 | 117 | > 40 | 1.14 | 1.39 | 2.49 | > 40 | > 40 | 128 | 134 | > 40 | > 40 | 1.07 | > 40 | > 40 | > 40 | > 40 | > 40 | > 40 | > 40
9 | – | CCCCNNC(=O)c1cnc(Nc2cccc3ccccc23)cn1 | 114 | > 40 | 0.98 | 4.16 | 4.67 | > 40 | > 40 | 151 | 189 | > 40 | > 40 | 2.02 | > 40 | > 40 | > 40 | > 40 | > 40 | > 40 | > 40
10 | – | CCCCNNC(=O)c1cnc(N2CCCCC2)cn1 | 104 | – | 3.86 | 1.87 | 6.79 | – | – | 119 | 101 | – | – | 2.93 | – | – | – | – | – | – | –
11 | – | CCCNNC(=O)c1cnc(N2CCCCC2)cn1 | 110 | > 40 | 0.89 | 2.44 | 2.87 | > 40 | > 40 | 163 | 118 | > 40 | > 40 | 132 | > 40 | > 40 | > 40 | > 40 | > 40 | > 40 | > 40
12 | – | CCCNNC(=O)c1cnc(Nc2cccc3ccccc23)cn1 | 112 | > 40 | 0.94 | 1.51 | 2.89 | > 40 | > 40 | 126 | 116 | > 40 | > 40 | 1.74 | > 40 | > 40 | > 40 | > 40 | > 40 | > 40 | > 40
13 | – | CCCNNC(=O)c1cnc(N)cn1 | 139 | > 40 | 1.08 | 0.99 | 2.43 | > 40 | > 40 | 220 | 141 | > 40 | > 40 | 0.88 | > 40 | > 40 | > 40 | > 40 | > 40 | > 40 | > 40
14 | – | CCCCNNC(=O)c1cnc(NC(=O)c2ccc3[nH]ccc3c2)cn1 | 105 | – | 1.43 | 2.44 | 4.05 | – | – | 130 | 107 | – | – | 1.69 | – | – | – | – | – | – | –
